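All cell lines were grown in 96-well plates and treated with compound for 48 hours. The concentration for 50% growth inhibition is given as GI50.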 Calls of active or inactive are those of the source. Rule as the data show it: active = GI50 up to about 1.1 µM and inactive = higher.
Key:
Assay in all cases: inhibition of tumour cell growth, NCI panel, 48 h
UO-31 = system: UO-31
KM12 = system: KM12
OVCAR-3 = system: OVCAR-3
T47D = system: T47D
MDA-MB-231 = system: MDA-MB-231
HL-60 = system: HL-60
MDA-MB-435 = system: MDA-MB-435
SNB-19 = system: SNB-19
SF-268 = system: SF-268
HOP-62 = system: HOP-62
A498 = system: A498
U-251 = system: U-251
SK-MEL-2 = system: SK-MEL-2
A549 = system: A549
OVCAR-5 = system: OVCAR-5
TK-10 = system: TK-10
K562 = system: K562
SK-MEL-5 = system: SK-MEL-5
SF-539 = system: SF-539

Measured: GI50

O=C1C=C(NCCc2ccc(O)cc2)C(=O)C=C1NCCc1ccc(O)cc1
inactive: UO-31 > 100 µM | KM12 > 100 µM | OVCAR-3 > 100 µM | T47D > 100 µM | MDA-MB-231 47.1 µM | HL-60 19.2 µM | MDA-MB-435 49.1 µM | SNB-19 > 100 µM | SF-268 > 100 µM | HOP-62 64 µM | A498 > 100 µM | U-251 32.2 µM | SK-MEL-2 > 100 µM | A549 > 100 µM | OVCAR-5 > 100 µM | TK-10 > 100 µM | K562 38 µM | SK-MEL-5 > 100 µM

COCc1nc2c(OC)c(-c3nc4ccc(N5CCN(C)CC5)nc4[nH]3)cc(OC)c2[nH]1
inactive: UO-31 56.2 µM | KM12 27.4 µM | OVCAR-3 15.9 µM | T47D 53 µM | MDA-MB-231 45.8 µM | HL-60 30.7 µM | MDA-MB-435 41.8 µM | SNB-19 48 µM | SF-268 77.4 µM | HOP-62 40.1 µM | A498 > 100 µM | U-251 39.7 µM | A549 46 µM | OVCAR-5 40.4 µM | TK-10 67.3 µM | K562 25.4 µM | SK-MEL-5 18.6 µM

Nc1nc(N)c(NC(=O)CCCO)c(=O)[nH]1
inactive: UO-31 > 100 µM | KM12 > 100 µM | OVCAR-3 > 100 µM | T47D > 100 µM | SF-539 > 100 µM | MDA-MB-231 > 100 µM | MDA-MB-435 > 100 µM | SNB-19 > 100 µM | SF-268 > 100 µM | HOP-62 > 100 µM | A498 > 100 µM | U-251 > 100 µM | SK-MEL-2 > 100 µM | A549 > 100 µM | OVCAR-5 > 100 µM | TK-10 > 100 µM | K562 > 100 µM | SK-MEL-5 > 100 µM

NCCP(=O)(O)O
inactive: UO-31 > 100 µM | KM12 > 100 µM | OVCAR-3 > 100 µM | T47D > 100 µM | MDA-MB-231 > 100 µM | HL-60 > 100 µM | MDA-MB-435 > 100 µM | SNB-19 > 100 µM | SF-268 > 100 µM | HOP-62 > 100 µM | A498 > 100 µM | U-251 > 100 µM | SK-MEL-2 > 100 µM | A549 > 100 µM | OVCAR-5 > 100 µM | TK-10 > 100 µM | K562 > 100 µM | SK-MEL-5 > 100 µM

C[N+](C)(C)c1ccc(C(N)C(=O)O)cc1 (stereo not given)
inactive: UO-31 > 100 µM | KM12 > 100 µM | OVCAR-3 > 100 µM | T47D > 100 µM | MDA-MB-231 > 100 µM | HL-60 43.7 µM | MDA-MB-435 > 100 µM | SNB-19 > 100 µM | SF-268 > 100 µM | HOP-62 > 100 µM | A498 > 100 µM | U-251 > 100 µM | SK-MEL-2 > 100 µM | OVCAR-5 > 100 µM | TK-10 > 100 µM | K562 > 100 µM | SK-MEL-5 > 100 µM

CCOC(=O)/C(=C\NC(=S)Nc1ccc(Cl)c(Cl)c1)C(=O)c1ccccc1
inactive: UO-31 1.52 µM | KM12 26.5 µM | T47D 7.82 µM | SF-539 3.12 µM | MDA-MB-231 25.9 µM | HL-60 22.8 µM | MDA-MB-435 17.7 µM | SF-268 26.6 µM | HOP-62 40.6 µM | A498 3.94 µM | U-251 37.2 µM | SK-MEL-2 21.7 µM | A549 43.1 µM | OVCAR-5 36.2 µM | K562 10 µM | SK-MEL-5 27.1 µM

COc1ccc2c(c1)OCC1Cc3cc4c(cc3OC21)OCO4 (stereo not given)
inactive: UO-31 38.6 µM | KM12 31.8 µM | OVCAR-3 47.9 µM | T47D 32.1 µM | SF-539 39.6 µM | MDA-MB-231 > 100 µM | MDA-MB-435 7.73 µM | SNB-19 > 100 µM | SF-268 55.7 µM | HOP-62 41.2 µM | A498 > 100 µM | U-251 42.6 µM | SK-MEL-2 30 µM | A549 38.8 µM | OVCAR-5 60.7 µM | TK-10 28.1 µM | K562 33.1 µM | SK-MEL-5 16.8 µM

Cc1cc(OCc2nnc3n2N=C(c2cc(F)c(Cl)cc2Cl)/C(=C/c2ccc(-c4ccc(Cl)cc4)o2)S3)ccc1Cl
inactive: UO-31 48.5 µM | KM12 41.5 µM | OVCAR-3 30.5 µM | T47D 7.93 µM | MDA-MB-231 12.9 µM | HL-60 > 50 µM | MDA-MB-435 19.3 µM | SNB-19 > 50 µM | SF-268 > 50 µM | HOP-62 > 50 µM | A498 24.7 µM | U-251 > 50 µM | SK-MEL-2 > 50 µM | A549 > 50 µM | OVCAR-5 > 50 µM | TK-10 41.2 µM | K562 26.9 µM | SK-MEL-5 46.5 µM

From ChEMBL document CHEMBL1201862, “PubChem BioAssay data set” (2004)
